Target: T1, recombinant sEH (Homo sapiens, UniProt P34913)
T1 construct: made in house; host or cells: Sf9 insect cells
T1 sequence (P34913 1-555): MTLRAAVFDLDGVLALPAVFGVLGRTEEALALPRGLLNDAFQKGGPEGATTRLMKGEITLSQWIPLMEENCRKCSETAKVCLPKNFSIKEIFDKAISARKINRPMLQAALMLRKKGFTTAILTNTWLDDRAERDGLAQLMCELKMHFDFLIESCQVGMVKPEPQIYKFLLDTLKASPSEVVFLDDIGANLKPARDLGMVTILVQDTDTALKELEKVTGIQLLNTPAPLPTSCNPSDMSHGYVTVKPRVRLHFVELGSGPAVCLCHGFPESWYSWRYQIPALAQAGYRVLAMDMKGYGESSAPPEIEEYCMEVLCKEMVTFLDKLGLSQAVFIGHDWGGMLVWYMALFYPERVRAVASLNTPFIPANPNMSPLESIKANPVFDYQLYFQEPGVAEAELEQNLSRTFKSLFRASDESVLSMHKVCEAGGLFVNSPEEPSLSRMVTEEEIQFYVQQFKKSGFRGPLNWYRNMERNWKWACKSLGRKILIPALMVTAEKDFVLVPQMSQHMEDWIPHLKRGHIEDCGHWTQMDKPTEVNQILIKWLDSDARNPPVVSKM
Assay: biochemical screening assay for inhibition of soluble epoxide hydrolase (fluorometric, Phome substrate)
Summary of the method: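 Reading fluorescence before substrate addition and after completion corrected for autofluorescence. Reaction: 5 μM Phome, 2 nM recombinant human sEH (Sf9-expressed), compound 0.0001–10 μM, 25 mM Hepes with 0.01% albumin, 15 min pre-incubation then 60 min at 30 °C; IC50 derived from % inhibition.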

IC50 | SMILES
3 nM | Cc1ncccc1O[C@H]1CO[C@H]2[C@@H]1OC[C@@H]2NC(=O)NC1CC(C)CC(C)(C)C1 (stereo partly drawn) [Example 256, 1-[(3S,3aR,6S,6aS)-6-(2-Methyl-pyridin-3-yloxy)-hexahydro-furo[3,2-b]furan-3-yl]-3-(3,3,5-trimethyl-cyclohexyl)-urea]
3 nM | Cc1ncccc1O[C@H]1CO[C@H]2[C@@H]1OC[C@@H]2NC(=O)NC1CCC(C)CC1 (stereo partly drawn) [Example 257, 1-(4-Methyl-cyclohexyl)-3-[(3S,3aR,6S,6aS)-6-(2-methyl-pyridin-3-yloxy)-hexahydro-furo[3,2-b]furan-3-yl]-urea]
2 nM | Cc1ncccc1O[C@H]1CO[C@H]2[C@@H]1OC[C@@H]2NC(=O)NC1CCCC(C)C1 (stereo partly drawn) [Example 258, 1-(3-Methyl-cyclohexyl)-3-[(3S,3aR,6S,6aS)-6-(2-methyl-pyridin-3-yloxy)-hexahydro-furo[3,2-b]furan-3-yl]-urea]
5 nM | Cc1ncccc1O[C@H]1CO[C@H]2[C@@H]1OC[C@@H]2NC(=O)NC1CCCCC1C (stereo partly drawn) [Example 259, 1-(2-Methyl-cyclohexyl)-3-[(3S,3aR,6S,6aS)-6-(2-methyl-pyridin-3-yloxy)-hexahydro-furo[3,2-b]furan-3-yl]-urea]
8 nM | Cc1ncccc1O[C@H]1CO[C@H]2[C@@H]1OC[C@@H]2NC(=O)NC1CCC(C(C)(C)C)CC1 (stereo partly drawn) [Example 260, 1-(4-tert-Butyl-cyclohexyl)-3-[(3S,3aR,6S,6aS)-6-(2-methyl-pyridin-3-yloxy)-hexahydro-furo[3,2-b]furan-3-yl]-urea]
3 nM | Cc1ncccc1O[C@H]1CO[C@H]2[C@@H]1OC[C@@H]2NC(=O)NC1CCCC(C)C1C (stereo partly drawn) [Example 261, 1-(2,3-Dimethyl-cyclohexyl)-3-[(3S,3aR,6S,6aS)-6-(2-methyl-pyridin-3-yloxy)-hexahydro-furo[3,2-b]furan-3-yl]-urea]
2 nM | Cc1ncccc1O[C@H]1CO[C@H]2[C@@H]1OC[C@@H]2NC(=O)NC1CC2CC1C1CCCC21 (stereo partly drawn) [Example 262, 1-[(3S,3aR,6S,6aS)-6-(2-Methyl-pyridin-3-yloxy)-hexahydro-furo[3,2-b]furan-3-yl]-3-(octahydro-4,7-methano-inden-5-yl)-urea]
25 nM | Cc1ncccc1O[C@H]1CO[C@H]2[C@@H]1OC[C@@H]2NC(=O)NC1CC(C)CCC1C(C)C (stereo partly drawn) [Example 263, 1-(2-Isopropyl-5-methyl-cyclohexyl)-3-[(3S,3aR,6S,6aS)-6-(2-methyl-pyridin-3-yloxy)-hexahydro-furo[3,2-b]furan-3-yl]-urea]
6 nM | Cc1ncccc1O[C@H]1CO[C@H]2[C@@H]1OC[C@@H]2NC(=O)NC1CCC(c2ccccc2)CC1 (stereo partly drawn) [Example 264, 1-[(3S,3aR,6S,6aS)-6-(2-Methyl-pyridin-3-yloxy)-hexahydro-furo[3,2-b]furan-3-yl]-3-(4-phenyl-cyclohexyl)-urea]
111 nM | Cc1ncccc1O[C@H]1CO[C@H]2[C@@H]1OC[C@@H]2NC(=O)N[C@@H]1CCCC[C@H]1C(C)(C)C [Example 265, 1-((1R,2S)-2-tert-Butyl-cyclohexyl)-3-[(3S,3aR,6S,6aS)-6-(2-methyl-pyridin-3-yloxy)-hexahydro-furo[3,2-b]furan-3-yl]-urea]
16 nM | Cc1ncccc1O[C@H]1CO[C@H]2[C@@H]1OC[C@@H]2NC(=O)NC1CCC2(CC1)OCCO2 [Example 266, 1-(1,4-Dioxa-spiro[4.5]dec-8-yl)-3-[(3S,3aR,6S,6aS)-6-(2-methyl-pyridin-3-yloxy)-hexahydro-furo[3,2-b]furan-3-yl]-urea]
2 nM | Cc1ncccc1O[C@H]1CO[C@H]2[C@@H]1OC[C@@H]2NC(=O)N[C@H]1CC[C@H](C)CC1 [Example 267, 1-(trans-4-Methyl-cyclohexyl)-3-[(3S,3aR,6S,6aS)-6-(2-methyl-pyridin-3-yloxy)-hexahydro-furo[3,2-b]furan-3-yl]-urea]
2 nM | Cc1ncccc1O[C@H]1CO[C@H]2[C@@H]1OC[C@@H]2NC(=O)NC1CCC(C)(C)CC1 [Example 268, 1-(4,4-Dimethyl-cyclohexyl)-3-[(3S,3aR,6S,6aS)-6-(2-methyl-pyridin-3-yloxy)-hexahydro-furo[3,2-b]furan-3-yl]-urea]
2 nM | Cc1ncccc1O[C@H]1CO[C@H]2[C@@H]1OC[C@@H]2NC(=O)NC1C(C)CCCC1C (stereo partly drawn) [Example 269, 1-(2,6-Dimethyl-cyclohexyl)-3-[(3S,3aR,6S,6aS)-6-(2-methyl-pyridin-3-yloxy)-hexahydro-furo[3,2-b]furan-3-yl]-urea]
16 nM | Cc1ncccc1O[C@H]1CO[C@H]2[C@@H]1OC[C@@H]2NC(=O)NC1CCCCC1(C)C (stereo partly drawn) [Example 270, 1-(2,2-Dimethyl-cyclohexyl)-3-[(3S,3aR,6S,6aS)-6-(2-methyl-pyridin-3-yloxy)-hexahydro-furo[3,2-b]furan-3-yl]-urea]
99 nM | Cc1ncccc1O[C@H]1CO[C@H]2[C@@H]1OC[C@@H]2NC(=O)NC1CCCCC1C(C)(C)C (stereo partly drawn) [Example 271, 1-(2-tert-Butyl-cyclohexyl)-3-[(3S,3aR,6S,6aS)-6-(2-methyl-pyridin-3-yloxy)-hexahydro-furo[3,2-b]furan-3-yl]-urea]
1 nM | Cc1ncccc1O[C@H]1CO[C@H]2[C@@H]1OC[C@@H]2NC(=O)N[C@H]1CC[C@@H](C)CC1 [Example 272, 1-(cis-4-Methyl-cyclohexyl)-3-[(3S,3aR,6S,6aS)-6-(2-methyl-pyridin-3-yloxy)-hexahydro-furo[3,2-b]furan-3-yl]-urea]
1 nM | Cc1ncccc1O[C@H]1CO[C@H]2[C@@H]1OC[C@@H]2NC(=O)NC1CC(C)(C)CC(C)(C)C1 [Example 273, 1-[(3S,3aR,6S,6aS)-6-(2-Methyl-pyridin-3-yloxy)-hexahydro-furo[3,2-b]furan-3-yl]-3-(3,3,5,5-tetramethyl-cyclohexyl)-urea]
14 nM | Cc1ncccc1O[C@H]1CO[C@H]2[C@@H]1OC[C@@H]2NC(=O)N[C@@H]1CCCC[C@H]1F [Example 274, 1-((1R,2R)-2-Fluoro-cyclohexyl)-3-[(3S,3aR,6S,6aS)-6-(2-methyl-pyridin-3-yloxy)-hexahydro-furo[3,2-b]furan-3-yl]-urea]
19 nM | Cc1ncccc1O[C@H]1CO[C@H]2[C@@H]1OC[C@@H]2NC(=O)NC1CCCCC1C(F)(F)F (stereo partly drawn) [Example 275, 1-[(3S,3aR,6S,6aS)-6-(2-Methyl-pyridin-3-yloxy)-hexahydro-furo[3,2-b]furan-3-yl]-3-(2-trifluoromethyl-cyclohexyl)-urea]
1 nM | Cc1ncccc1O[C@H]1CO[C@H]2[C@@H]1OC[C@@H]2NC(=O)NC1CCC(C)CC1C (stereo partly drawn) [Example 276, 1-(2,4-Dimethyl-cyclohexyl)-3-[(3S,3aR,6S,6aS)-6-(2-methyl-pyridin-3-yloxy)-hexahydro-furo[3,2-b]furan-3-yl]-urea]
2 nM | Cc1ncccc1O[C@H]1CO[C@H]2[C@@H]1OC[C@@H]2NC(=O)NC1CCCCC1(F)F (stereo partly drawn) [Example 277, 1-(2,2-Difluoro-cyclohexyl)-3-[(3S,3aR,6S,6aS)-6-(2-methyl-pyridin-3-yloxy)-hexahydro-furo[3,2-b]furan-3-yl]-urea]
924 nM | Cc1ncccc1O[C@H]1CO[C@H]2[C@@H]1OC[C@@H]2NC(=O)N1CCCC(F)(F)C1 [Example 278, 3,3-Difluoro-piperidine-1-carboxylic acid [(3S,3aR,6S,6aS)-6-(2-methyl-pyridin-3-yloxy)-hexahydro-furo[3,2-b]furan-3-yl]-amide]
1 nM | Cc1ncccc1O[C@H]1CO[C@H]2[C@@H]1OC[C@@H]2NC(=O)NCc1cc(F)ccc1OC(F)(F)F [Example 279, 1-(5-Fluoro-2-trifluoromethoxy-benzyl)-3-[(3S,3aR,6S,6aS)-6-(2-methyl-pyridin-3-yloxy)-hexahydro-furo[3,2-b]furan-3-yl]-urea]
12 nM | Cc1ncccc1O[C@H]1CO[C@H]2[C@@H]1OC[C@@H]2NC(=O)NC1CCC(C(C)(C)O)CC1 (stereo partly drawn) [Example 280, 1-[4-(1-Hydroxy-1-methyl-ethyl)-cyclohexyl]-3-[(3S,3aR,6S,6aS)-6-(2-methyl-pyridin-3-yloxy)-hexa-hydro-furo[3,2-b]furan-3-yl]-urea]
75 nM | O=C(NC1CCCCC1)N[C@H]1CO[C@H]2[C@@H]1OC[C@@H]2C#Cc1ccc2c(c1)OCO2 [Example 281, 1-((3S,3aR,6S,6aR)-6-benzo[1,3]dioxol-5-ylethynyl-hexahydro-furo[3,2-b]furan-3-yl)-3-cyclohexyl-urea]
12 nM | O=C(NC1CCCCC1)NC1COC2C(C#Cc3ccccc3)COC12 [Example 282, 1-Cyclohexyl-3-((3S,3aR,6S,-6aR)-6-phenylethynyl-hexa-hydro-furo[3,2-b]furan-3-yl)-urea]
71 nM | COc1cc(NC(=O)N[C@H]2CO[C@@H]3[C@@H]2OC[C@H]3C#Cc2ccccc2)cc(OC)c1 [Example 284, 1-(3,5-Dimethoxy-phenyl)-3-[(3S,3aR,6R)-6-((S)-phenylethynyl)-hexahydro-furo[3,2-b]furan-3-yl]-urea]

SMILES | IC50
CCCCOc1ccc(NC(=O)NC2COC3C(C#Cc4ccccc4)COC23)cc1 [Example 283, 1-(4-Butoxy-phenyl)-3-[(3S,3aR,6R)-6-((S)-phenylethynyl)-hexahydro-furo[3,2-b]furan-3-yl]-urea] | 70 nM

From patent publication US9540391B2, “Isomannide derivatives as inhibitors of soluble epoxide hydrolase” (SANOFI, priority 2013, dated 2017)
